Experimental findings from patent US5667764A, “Compounds, compositions and methods for binding bio-affecting substances to surface membranes of bio-particles” (Zynaxis, Inc., priority 1992, dated 1997) are described below.

The subject of the first assay is membrane ghosts. The assay is described as follows: Membrane binding stability (MBS) assay in membrane ghosts with 5% albumin. As to conditions: 24 hours, Table III. From the text: Determination of Membrane Binding Stability
For example, very stable binding to membranes might be required for applications such as delivery of therapeutic radionuclides to tumor sites, as loss of compound could lead to the radionuclide producing its toxic effect at non-tumor sites. On the other hand, more rapid loss of compound from biomembranes may be desirable for application involving controlled delivery rates of therapeutic agents. Accordingly, there is described hereinbelow an assay for determining MBS under conditions approximating those found in vivo.
In carrying out this assay, approximately physiological concentrations of serum albumin (5%) are used. […] To better approximate the effects of large fluid volumes to which labelled cells are exposed in vivo, the assay for MBS is carried out by suspending a decreasing number of labeled membrane ghosts in a fixed volume of albumin-containing saline. At 24 hours, the total amount of label present is determined by sampling the well mixed suspension; subsequently, the membrane ghosts are pelleted by centrifugation and the amount of label released into the supernatant is determined and expressed as a percent of total label. Percent retention is plotted against number of ghosts per ml. of suspension, and MBS is determined as the area under the curve between 5×10^7 ghosts/ml. and 4×10^8 ghosts/ml.
In the case of `CCCCCCCCCCCCCCCCCCN1C(=CC=Cc2sc3ccccc3[n+]2CCCCCCCCCCCCCCCCCC)Sc2ccccc21` [AA], the MBS is recorded as 94 ± 1.5%.

Take `CCCCCCCCCCCCCCN1C(=CC=CC2=[N+](CCC)c3ccccc3C2(C)C)C(C)(C)c2ccccc21` [AC]: the MBS is 10 ± 2.1%.

In turn, `CCCCCCCCCCCCCCCCCCCCCCN1C(=CC=Cc2oc3ccccc3[n+]2CCC)Oc2ccccc21` [U] came in with an MBS of 47 ± 3.1%. The same measure, in the same setting: the result for `CCCCCCCCCCCCCCCCCCCCCCN1C(=CC=Cc2sc3ccccc3[n+]2CCC)Sc2ccccc21` [V] reads 64 ± 3.4%.

`CCCCCCCCCCCCCCN1C(=CC=Cc2oc3ccccc3[n+]2CCCCCCCCCCCCCC)Oc2ccccc21` [W] gave an MBS of 77 ± 1.1%. The same measure, in the same setting: the same measure for `CCCCCCCCCCCCCCN1C(=CC=Cc2sc3ccccc3[n+]2CCCCCCCCCCCCCC)Sc2ccccc21` [X]: 91 ± 1.3%; for `CCCCCCCCCCCCCCCCCCN1C(=CC=Cc2oc3ccccc3[n+]2CCCCCCCCCCCCCCCCCC)Oc2ccccc21` [Y]: 93 ± 1.0%.

A further assay relates to rabbit hind limb (femoral arterial bed), substance P receptors. Kind of assay: Vascular response in rabbit blood perfused hind limb preparation. Format: in vivo. As to conditions: during infusion of antagonist. The source says:
The in vivo receptor pharmacology of the compound produced in Example 3d., above, was studied in a rabbit blood perfused hind limb preparation similar to that described by U. Forstermann et al., J. Pharmacol. Exp. Ther., 234: 1055-61 (1987). Blood from a pentobarbital anesthetized, artificially ventilated rabbit was withdrawn from a cannulated carotid artery, passed within medical grade silastic tubing through a constant speed roller pump, and directed to a cannulated femoral artery. Distal perfusion pressure in the femoral arterial bed was measured (in mm Hg) by means of a micropressure transducer (Millar) passed down the perfusion tubing so as to lie just beyond the tip of the femoral catheter. Initially, pump speed was adjusted so that distal perfusion pressure approximated systemic mean arterial blood pressure after which blood flow was kept constant for the remainder of each experiment. Changes in resistance then varied directly as distal perfusion pressure in a manner similar to that described by Ohm's law, such that:
Vascular Resistance=Perfusion Pressure Blood Flow
Thus, by maintaining blood flow constant for the duration of each experiment, changes in distal perfusion pressure directly reflected vascular resistance such that a decrease in pressure signifies vasodilation and an increase in pressure signifies vasoconstriction. Direct injection into the perfusion circuit could thus be used to assess the vascular biology and pharmacology of substances believed to exert actions on in vivo vascular smooth muscle tone.
Turning to `CC(C)NCC(O)c1ccc(O)c(O)c1` (stereo not drawn) [isoproterenol, reference compound], the “Effect of antagonist [D-Pro^2,D-Trp^7.9]-substance P on the response” value was “not antagonized by the SP antagonist”.

Staying with this assay, now noted: local injection, no antagonist.
`CC(C)NCC(O)c1ccc(O)c(O)c1` (stereo not drawn) [isoproterenol, reference compound]: the “Hind-limb perfusion pressure response” value is “dose related decrease in perfusion pressure”.
